How the values were obtained:
ryegrass, Italian [1] = assay: Test C preemergence; assay type: in vivo, Lolium multiflorum
Procedure, shortened: (§1)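 Visual injury ratings on a 0–100 scale (100 = complete control) were made against untreated controls 10 days after treatment in the greenhouse. Compounds, formulated with surfactant in non-phytotoxic solvent, were sprayed on soil preemergence or onto one- to two-leaf plants 2–10 cm tall postemergence.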

green foxtail [2] = assay: Test C preemergence; assay type: in vivo, Setaria viridis
Procedure, shortened: as §1

ragweed [3] = assay: Test C preemergence; assay type: in vivo, Ambrosia artemisiifolia
Procedure, shortened: as §1

barnyardgrass [4] = assay: Test C preemergence; assay type: in vivo, Echinochloa crusgalli
Procedure, shortened: as §1

galium = assay: Test C postemergence; assay type: in vivo, Galium aparine; settings: 10 days, 0 to 100 scale (0 no effect, 100 complete control)
Procedure, shortened: as §1

barnyardgrass [5] = assay: Test D flooded paddy test; assay type: in vivo, Echinochloa crus-galli; settings: 250 g ai/ha, applied to paddy water, visual rating after 13 to 14 days, scale 0 to 100 (0 no effect, 100 complete control)
Procedure, shortened: (§2)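 Plants at the 2-leaf stage were grown in pots flooded to 3 cm, and compound was applied directly into the paddy water, with depth kept throughout. After 13–14 days in a greenhouse, injury was rated visually against untreated controls on a 0–100 scale (100 = complete control); a dash means not tested.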

kochia [6] = assay: Test C preemergence; assay type: in vivo, Bassia scoparia
Procedure, shortened: as §1

soybean [7] = assay: Test C preemergence; assay type: in vivo, Glycine max
Procedure, shortened: as §1

rice = assay: Test D flooded paddy test; assay type: in vivo, Oryza sativa; settings: 250 g ai/ha, applied to paddy water, visual rating after 13 to 14 days, scale 0 to 100 (0 no effect, 100 complete control)
Procedure, shortened: as §2

oat, wild [8] = assay: Test C preemergence; assay type: in vivo, Avena fatua
Procedure, shortened: as §1

corn [9] = assay: Test C postemergence; assay type: in vivo, Zea mays; settings: 10 days, 0 to 100 scale (0 no effect, 100 complete control)
Procedure, shortened: as §1

blackgrass [10] = assay: Test C postemergence; assay type: in vivo, Alopecurus myosuroides; settings: 10 days, 0 to 100 scale (0 no effect, 100 complete control)
Procedure, shortened: as §1

wheat [11] = assay: Test C postemergence; assay type: in vivo, Triticum aestivum; settings: 10 days, 0 to 100 scale (0 no effect, 100 complete control)
Procedure, shortened: as §1

green foxtail [12] = assay: Test C postemergence; assay type: in vivo, Setaria viridis; settings: 10 days, 0 to 100 scale (0 no effect, 100 complete control)
Procedure, shortened: as §1

ryegrass, Italian [13] = assay: Test C postemergence; assay type: in vivo, Lolium multiflorum; settings: 10 days, 0 to 100 scale (0 no effect, 100 complete control)
Procedure, shortened: as §1

ragweed [14] = assay: Test C postemergence; assay type: in vivo, Ambrosia artemisiifolia; settings: 10 days, 0 to 100 scale (0 no effect, 100 complete control)
Procedure, shortened: as §1

blackgrass [15] = assay: Test C preemergence; assay type: in vivo, Alopecurus myosuroides
Procedure, shortened: as §1

pigweed, palmer [16] = assay: Test C postemergence; assay type: in vivo, Amaranthus palmeri; settings: 10 days, 0 to 100 scale (0 no effect, 100 complete control)
Procedure, shortened: as §1

horseweed = assay: Test C postemergence; assay type: in vivo, Erigeron canadensis; settings: 10 days, 0 to 100 scale (0 no effect, 100 complete control)
Procedure, shortened: as §1

oat, wild [17] = assay: Test C postemergence; assay type: in vivo, Avena fatua; settings: 10 days, 0 to 100 scale (0 no effect, 100 complete control)
Procedure, shortened: as §1

barnyardgrass [18] = assay: Test C postemergence; assay type: in vivo, Echinochloa crusgalli; settings: 10 days, 0 to 100 scale (0 no effect, 100 complete control)
Procedure, shortened: as §1

soybean [19] = assay: Test C postemergence; assay type: in vivo, Glycine max; settings: 10 days, 0 to 100 scale (0 no effect, 100 complete control)
Procedure, shortened: as §1

corn [20] = assay: Test C preemergence; assay type: in vivo, Zea mays
Procedure, shortened: as §1

kochia [21] = assay: Test C postemergence; assay type: in vivo, Bassia scoparia; settings: 10 days, 0 to 100 scale (0 no effect, 100 complete control)
Procedure, shortened: as §1

wheat [22] = assay: Test C preemergence; assay type: in vivo, Triticum aestivum
Procedure, shortened: as §1

sedge, umbrella = assay: Test D flooded paddy test; assay type: in vivo, Cyperus difformis; settings: 250 g ai/ha, applied to paddy water, visual rating after 13 to 14 days, scale 0 to 100 (0 no effect, 100 complete control)
Procedure, shortened: as §2

pigweed, palmer [23] = assay: Test C preemergence; assay type: in vivo, Amaranthus palmeri
Procedure, shortened: as §1

ducksalad = assay: Test D flooded paddy test; assay type: in vivo, Heteranthera limosa; settings: 250 g ai/ha, applied to paddy water, visual rating after 13 to 14 days, scale 0 to 100 (0 no effect, 100 complete control)
Procedure, shortened: as §2

[24] = 500 g ai/ha, preemergence, 0 to 100 scale (0 no effect, 100 complete control)
[25] = Preemergence, 125 g ai/ha, 0 to 100 scale, 0 no effect, 100 complete control

Cc1ccc(-n2cnc(C(C)(C)C)n2)cc1C(=O)N1CC(C(F)(F)F)Oc2c(Cl)cccc21 (stereo not shown) [Compound 350]
Ryegrass, Italian plant response rating (ryegrass, Italian [1]; [24]): 100 | Plant response rating, Ryegrass, Italian (ryegrass, Italian [1]; [25]): 100 | Foxtail, Green plant response rating (green foxtail [2]; [24]): 100 | Plant response rating, Foxtail, Green (green foxtail [2]; [25]): 100 | Ragweed plant response rating (ragweed [3]; [24]): 60 | Plant response rating, Ragweed (ragweed [3]; [25]): 20 | Barnyardgrass plant response rating (barnyardgrass [4]; [24]): 100 | Plant response rating, Barnyardgrass (barnyardgrass [4]; [25]): 50 | Plant response rating, Galium (galium; 500 g ai/ha, postemergence): 100 | Plant response rating, Galium (galium; Postemergence, 125 g ai/ha): 80 | Plant response rating, Barnyardgrass (Flood) (barnyardgrass [5]): 0 | Kochia plant response rating (kochia [6]; [24]): 80 | Plant response rating, Kochia (kochia [6]; [25]): 50 | Soybean plant response rating (soybean [7]; [24]): 90 | Plant response rating, Soybean (soybean [7]; [25]): 90 | Plant response rating, Rice (Flood) (rice): 0 | Oat, Wild plant response rating (oat, wild [8]; [24]): 50 | Plant response rating, Oat, Wild (oat, wild [8]; [25]): 30 | Plant response rating, Corn (corn [9]; 500 g ai/ha, postemergence): 20 | Plant response rating, Corn (corn [9]; Postemergence, 125 g ai/ha): 10 | Plant response rating, Blackgrass (blackgrass [10]; 500 g ai/ha, postemergence): 20 | Plant response rating, Blackgrass (blackgrass [10]; Postemergence, 125 g ai/ha): 10 | Plant response rating, Wheat (wheat [11]; 500 g ai/ha, postemergence): 10 | Plant response rating, Wheat (wheat [11]; Postemergence, 125 g ai/ha): 10 | Plant response rating, Foxtail, Green (green foxtail [12]; 500 g ai/ha, postemergence): 80 | Plant response rating, Foxtail, Green (green foxtail [12]; Postemergence, 125 g ai/ha): 30 | Plant response rating, Ryegrass, Italian (ryegrass, Italian [13]; 500 g ai/ha, postemergence): 30 | Plant response rating, Ryegrass, Italian (ryegrass, Italian [13]; Postemergence, 125 g ai/ha): 10 | Plant response rating, Ragweed (ragweed [14]; 500 g ai/ha, postemergence): 50 | Plant response rating, Ragweed (ragweed [14]; Postemergence, 125 g ai/ha): 30 | Blackgrass plant response rating (blackgrass [15]; [24]): 50 | Plant response rating, Blackgrass (blackgrass [15]; [25]): 20 | Plant response rating, Pigweed, Palmer (pigweed, palmer [16]; 500 g ai/ha, postemergence): 100 | Plant response rating, Pigweed, Palmer (pigweed, palmer [16]; Postemergence, 125 g ai/ha): 100 | Plant response rating, Horseweed (horseweed; 500 g ai/ha, postemergence): 40 | Plant response rating, Horseweed (horseweed; Postemergence, 125 g ai/ha): 40 | Plant response rating, Oat, Wild (oat, wild [17]; 500 g ai/ha, postemergence): 10 | Plant response rating, Oat, Wild (oat, wild [17]; Postemergence, 125 g ai/ha): 0 | Plant response rating, Barnyardgrass (barnyardgrass [18]; 500 g ai/ha, postemergence): 30 | Plant response rating, Barnyardgrass (barnyardgrass [18]; Postemergence, 125 g ai/ha): 10 | Plant response rating, Soybean (soybean [19]; 500 g ai/ha, postemergence): 100 | Plant response rating, Soybean (soybean [19]; Postemergence, 125 g ai/ha): 100 | Corn plant response rating (corn [20]; [24]): 0 | Plant response rating, Corn (corn [20]; [25]): 0 | Plant response rating, Kochia (kochia [21]; 500 g ai/ha, postemergence): 90 | Plant response rating, Kochia (kochia [21]; Postemergence, 125 g ai/ha): 70 | Wheat plant response rating (wheat [22]; [24]): 30 | Plant response rating, Wheat (wheat [22]; [25]): 30 | Plant response rating, Sedge, Umbrella (Flood) (sedge, umbrella): 0 | Pigweed, Palmer plant response rating (pigweed, palmer [23]; [24]): 100 | Plant response rating, Pigweed, Palmer (pigweed, palmer [23]; [25]): 100 | Plant response rating, Ducksalad (Flood) (ducksalad): 0
